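The compound was tested at five concentrations on cells cultured in 96-well plates, with a 48-hour exposure period. The concentration for 50% growth inhibition is given as GI50. At the TGI there is no net growth.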
Tests used:
Test in all cases: growth of human tumour cells (NCI), 48 h
HCC-2998 colon = system: HCC-2998 colon
OVCAR-3 ovarian = system: OVCAR-3 ovarian
HOP-92 NSCLC = system: HOP-92 NSCLC
T-47D breast = system: T-47D breast
DU-145 prostate = system: DU-145 prostate
SF-539 CNS = system: SF-539 CNS
SN12C renal = system: SN12C renal
UACC-62 melanoma = system: UACC-62 melanoma
IGROV1 ovarian = system: IGROV1 ovarian
MOLT-4 leukemia = system: MOLT-4 leukemia
NCI-H522 lung = system: NCI-H522 lung
CAKI-1 renal = system: CAKI-1 renal
OVCAR-5 ovarian = system: OVCAR-5 ovarian
SK-MEL-2 melanoma = system: SK-MEL-2 melanoma
SK-MEL-28 melanoma = system: SK-MEL-28 melanoma
OVCAR-4 ovarian = system: OVCAR-4 ovarian
TK-10 renal = system: TK-10 renal
HCT-15 colon = system: HCT-15 colon
786-0 renal = system: 786-0 renal
HT29 colon = system: HT29 colon
MDA-MB-435 = system: MDA-MB-435
SNB-75 CNS = system: SNB-75 CNS
NCI/ADR-RES ovarian = system: NCI/ADR-RES ovarian
COLO 205 colon = system: COLO 205 colon
RXF 393 renal = system: RXF 393 renal
EKVX NSCLC = system: EKVX NSCLC
NCI-H460 lung = system: NCI-H460 lung
HOP-62 NSCLC = system: HOP-62 NSCLC
SW-620 colon = system: SW-620 colon
SR leukemia = system: SR leukemia
LOX IMVI melanoma = system: LOX IMVI melanoma
SK-OV-3 ovarian = system: SK-OV-3 ovarian
BT-549 breast = system: BT-549 breast
SF-295 CNS = system: SF-295 CNS
KM12 colon = system: KM12 colon
HL-60(TB) leukemia = system: HL-60(TB) leukemia
MCF7 breast = system: MCF7 breast
M14 melanoma = system: M14 melanoma
MDA-MB-231 breast = system: MDA-MB-231 breast
SF-268 CNS = system: SF-268 CNS
UO-31 renal = system: UO-31 renal
OVCAR-8 ovarian = system: OVCAR-8 ovarian
K-562 leukemia = system: K-562 leukemia
A498 renal = system: A498 renal
RPMI-8226 leukemia = system: RPMI-8226 leukemia
UACC-257 melanoma = system: UACC-257 melanoma
SK-MEL-5 melanoma = system: SK-MEL-5 melanoma
MALME-3M melanoma = system: MALME-3M melanoma
U251 CNS = system: U251 CNS
SNB-19 CNS = system: SNB-19 CNS
HS 578T breast = system: HS 578T breast
NCI-H226 lung = system: NCI-H226 lung
CCRF-CEM leukemia = system: CCRF-CEM leukemia
PC-3 prostate = system: PC-3 prostate
HCT-116 colon = system: HCT-116 colon
ACHN renal = system: ACHN renal

Question: For `c1ccc2c(NCCCn3ccnc3)c3oc4ccccc4c3nc2c1`, which GI50 (HCC-2998 colon) is on record?
Answer: 1.36 µM

Question: And the TGI (HCC-2998 colon)?
Answer: 2.99 µM

Question: What about the GI50 (OVCAR-3 ovarian) of the same compound?
Answer: 3.38 µM

Question: What about the TGI (OVCAR-3 ovarian) of the same compound?
Answer: > 100 µM

Question: And the GI50 (HOP-92 NSCLC)?
Answer: 1.11 µM

Question: What about the TGI (HOP-92 NSCLC) of the same compound?
Answer: 3.68 µM

Question: What about the GI50 (T-47D breast) of the same compound?
Answer: 2.31 µM

Question: And the TGI (T-47D breast)?
Answer: 8.53 µM

Question: And the GI50 (DU-145 prostate)?
Answer: 2.63 µM

Question: What about the TGI (DU-145 prostate) of the same compound?
Answer: 15.5 µM

Question: And the GI50 (SF-539 CNS)?
Answer: 1.71 µM

Question: What about the TGI (SF-539 CNS) of the same compound?
Answer: 3.94 µM

Question: What about the GI50 (SN12C renal) of the same compound?
Answer: 1.7 µM

Question: What about the TGI (SN12C renal) of the same compound?
Answer: 11 µM

Question: And the GI50 (UACC-62 melanoma)?
Answer: 2.01 µM

Question: What about the TGI (UACC-62 melanoma) of the same compound?
Answer: 4.62 µM

Question: What about the GI50 (IGROV1 ovarian) of the same compound?
Answer: 2.82 µM

Question: And the TGI (IGROV1 ovarian)?
Answer: 10.8 µM

Question: What about the GI50 (MOLT-4 leukemia) of the same compound?
Answer: 0.524 µM

Question: What about the TGI (MOLT-4 leukemia) of the same compound?
Answer: 71.8 µM

Question: And the GI50 (NCI-H522 lung)?
Answer: 1.58 µM

Question: What about the TGI (NCI-H522 lung) of the same compound?
Answer: 3.63 µM

Question: And the GI50 (CAKI-1 renal)?
Answer: 1.7 µM

Question: What about the TGI (CAKI-1 renal) of the same compound?
Answer: 6.56 µM

Question: And the GI50 (OVCAR-5 ovarian)?
Answer: 1.99 µM

Question: And the TGI (OVCAR-5 ovarian)?
Answer: 6.54 µM

Question: What about the GI50 (SK-MEL-2 melanoma) of the same compound?
Answer: 1.85 µM

Question: What about the TGI (SK-MEL-2 melanoma) of the same compound?
Answer: 3.6 µM

Question: What about the GI50 (SK-MEL-28 melanoma) of the same compound?
Answer: 2.15 µM

Question: And the TGI (SK-MEL-28 melanoma)?
Answer: 4.32 µM

Question: And the GI50 (OVCAR-4 ovarian)?
Answer: 2.12 µM

Question: What about the TGI (OVCAR-4 ovarian) of the same compound?
Answer: 7.47 µM

Question: And the GI50 (TK-10 renal)?
Answer: 3.29 µM

Question: What about the TGI (TK-10 renal) of the same compound?
Answer: 8.62 µM

Question: And the GI50 (HCT-15 colon)?
Answer: 1.79 µM

Question: What about the TGI (HCT-15 colon) of the same compound?
Answer: 10.6 µM

Question: And the GI50 (786-0 renal)?
Answer: 2.57 µM

Question: What about the TGI (786-0 renal) of the same compound?
Answer: 13.2 µM

Question: And the GI50 (HT29 colon)?
Answer: 1.05 µM

Question: And the TGI (HT29 colon)?
Answer: 3.08 µM

Question: What about the GI50 (MDA-MB-435) of the same compound?
Answer: 2.13 µM

Question: What about the TGI (MDA-MB-435) of the same compound?
Answer: 5.2 µM

Question: What about the GI50 (SNB-75 CNS) of the same compound?
Answer: 1.85 µM

Question: And the TGI (SNB-75 CNS)?
Answer: 4.93 µM

Question: And the GI50 (NCI/ADR-RES ovarian)?
Answer: 1.87 µM

Question: What about the TGI (NCI/ADR-RES ovarian) of the same compound?
Answer: 6.18 µM

Question: And the GI50 (COLO 205 colon)?
Answer: 1.42 µM

Question: And the TGI (COLO 205 colon)?
Answer: 3.04 µM

Question: What about the GI50 (RXF 393 renal) of the same compound?
Answer: 1.41 µM

Question: And the TGI (RXF 393 renal)?
Answer: 3.23 µM

Question: What about the GI50 (EKVX NSCLC) of the same compound?
Answer: 2.8 µM

Question: What about the TGI (EKVX NSCLC) of the same compound?
Answer: 11 µM

Question: And the GI50 (NCI-H460 lung)?
Answer: 1.27 µM

Question: What about the TGI (NCI-H460 lung) of the same compound?
Answer: 8.27 µM

Question: What about the GI50 (HOP-62 NSCLC) of the same compound?
Answer: 1.59 µM

Question: And the TGI (HOP-62 NSCLC)?
Answer: 4.3 µM

Question: What about the GI50 (SW-620 colon) of the same compound?
Answer: 0.792 µM

Question: What about the TGI (SW-620 colon) of the same compound?
Answer: 10.9 µM

Question: What about the GI50 (SR leukemia) of the same compound?
Answer: 1.73 µM

Question: What about the TGI (SR leukemia) of the same compound?
Answer: > 100 µM

Question: What about the GI50 (LOX IMVI melanoma) of the same compound?
Answer: 1.35 µM

Question: What about the TGI (LOX IMVI melanoma) of the same compound?
Answer: 3.3 µM

Question: What about the GI50 (SK-OV-3 ovarian) of the same compound?
Answer: 2.3 µM

Question: And the TGI (SK-OV-3 ovarian)?
Answer: 6.85 µM

Question: What about the GI50 (BT-549 breast) of the same compound?
Answer: 1.98 µM

Question: What about the TGI (BT-549 breast) of the same compound?
Answer: 4.75 µM

Question: And the GI50 (SF-295 CNS)?
Answer: 2.53 µM

Question: What about the TGI (SF-295 CNS) of the same compound?
Answer: 10.5 µM

Question: What about the GI50 (KM12 colon) of the same compound?
Answer: 2.51 µM

Question: And the TGI (KM12 colon)?
Answer: > 100 µM

Question: What about the GI50 (HL-60(TB) leukemia) of the same compound?
Answer: 2.5 µM

Question: And the TGI (HL-60(TB) leukemia)?
Answer: 7.72 µM

Question: What about the GI50 (MCF7 breast) of the same compound?
Answer: 1.78 µM

Question: And the TGI (MCF7 breast)?
Answer: 7.62 µM

Question: What about the GI50 (M14 melanoma) of the same compound?
Answer: 1.89 µM

Question: And the TGI (M14 melanoma)?
Answer: 3.56 µM

Question: What about the GI50 (MDA-MB-231 breast) of the same compound?
Answer: 2.04 µM

Question: And the TGI (MDA-MB-231 breast)?
Answer: 7.73 µM

Question: What about the GI50 (SF-268 CNS) of the same compound?
Answer: 2.2 µM

Question: What about the TGI (SF-268 CNS) of the same compound?
Answer: 12.1 µM

Question: What about the GI50 (UO-31 renal) of the same compound?
Answer: 1.42 µM

Question: What about the TGI (UO-31 renal) of the same compound?
Answer: 3.28 µM

Question: And the GI50 (OVCAR-8 ovarian)?
Answer: 1.58 µM

Question: And the TGI (OVCAR-8 ovarian)?
Answer: 4.55 µM

Question: What about the GI50 (K-562 leukemia) of the same compound?
Answer: 1.81 µM

Question: And the TGI (K-562 leukemia)?
Answer: > 100 µM

Question: And the GI50 (A498 renal)?
Answer: 2.89 µM

Question: And the TGI (A498 renal)?
Answer: 9.13 µM

Question: What about the GI50 (RPMI-8226 leukemia) of the same compound?
Answer: 2.04 µM

Question: What about the TGI (RPMI-8226 leukemia) of the same compound?
Answer: 5.62 µM

Question: What about the GI50 (UACC-257 melanoma) of the same compound?
Answer: 2.35 µM

Question: And the TGI (UACC-257 melanoma)?
Answer: 6 µM

Question: What about the GI50 (SK-MEL-5 melanoma) of the same compound?
Answer: 2.27 µM

Question: And the TGI (SK-MEL-5 melanoma)?
Answer: 5.14 µM

Question: And the GI50 (MALME-3M melanoma)?
Answer: 2.66 µM

Question: And the TGI (MALME-3M melanoma)?
Answer: 6.23 µM

Question: And the GI50 (U251 CNS)?
Answer: 2.33 µM

Question: What about the TGI (U251 CNS) of the same compound?
Answer: 10.3 µM

Question: And the GI50 (SNB-19 CNS)?
Answer: 2.6 µM

Question: What about the TGI (SNB-19 CNS) of the same compound?
Answer: 14.2 µM

Question: What about the GI50 (HS 578T breast) of the same compound?
Answer: 2.79 µM

Question: And the TGI (HS 578T breast)?
Answer: 14 µM

Question: And the GI50 (NCI-H226 lung)?
Answer: 1.94 µM

Question: What about the TGI (NCI-H226 lung) of the same compound?
Answer: 4.7 µM

Question: And the GI50 (CCRF-CEM leukemia)?
Answer: 2.35 µM

Question: What about the TGI (CCRF-CEM leukemia) of the same compound?
Answer: 18 µM

Question: What about the GI50 (PC-3 prostate) of the same compound?
Answer: 2.08 µM

Question: And the TGI (PC-3 prostate)?
Answer: 6.85 µM

Question: And the GI50 (HCT-116 colon)?
Answer: 0.518 µM

Question: And the TGI (HCT-116 colon)?
Answer: 10.3 µM

Question: And the GI50 (ACHN renal)?
Answer: 0.942 µM

Question: And the TGI (ACHN renal)?
Answer: 10.5 µM

— PubChem BioAssay (NCI)
